The record followed here is US20240132484A1, “BROAD SPECTRUM ANTIVIRAL COMPOUNDS TARGETING THE SKI COMPLEX” (priority 2020, published 2024).

One series relates to SARS2. Type of series: cell-based, SARS-CoV-2. To be noted: for Percentage Inhibition Average 1 μM / Screening data (Relative infection to DMSO controls) Average 1 μM: SARS2, 1 μM; for Screening data (Relative infection to DMSO controls) Average 1 μM / Screening data (Relative infection to DMSO controls) Average 5 μM / Screening data (Relative infection to DMSO controls) Average 10 μM / Screening data (Relative infection to DMSO controls) Average 25 μM / Screening data (Relative infection to DMSO controls) Average 50 μM / Average (relative infection to DMSO over the 5 tested concentrations): 100=DMSO control; for Percentage Inhibition Average 5 μM / Screening data (Relative infection to DMSO controls) Average 5 μM: SARS2, 5 μM; for Percentage Inhibition Average 10 μM / Screening data (Relative infection to DMSO controls) Average 10 μM: SARS2, 10 μM; for Percentage Inhibition Average 25 μM / Screening data (Relative infection to DMSO controls) Average 25 μM: SARS2, 25 μM; for Percentage Inhibition Average 50 μM / Screening data (Relative infection to DMSO controls) Average 50 μM: SARS2, 50 μM; for Average (relative infection to DMSO over the 5 tested concentrations): SARS2, average over 1 to 50 uM.

Another series has as its system cells (nuclei count). To be noted: for Relative cell count to DMSO controls, Average 1 μM / Relative cell count to DMSO controls, Average 5 μM / Relative cell count to DMSO controls, Average 10 μM / Relative cell count to DMSO controls, Average 25 μM / Relative cell count to DMSO controls, Average 50 μM: toxicity data, 100=DMSO control; for Relative cell count to DMSO controls, Average (for correlation analysis): average value over the 5 tested concentrations (1 to 50 uM); for Toxicity Data: Average, Mean: average of Exp 1-3 (SMW454, SMW466, SMW480), n 9.

Where “and” joins values, the source holds several entries; their conditions need not be identical. Equal entries are not always repeated. Where two headings read alike, the source gives them in different places.

Take `CC1=C(C(=O)NCC2CCCCC2)C(c2cccs2)NC(=O)N1` (stereo not drawn) [SILCS70]: in the series on SARS2, the “Percentage Inhibition Average 1 μM” value is listed as 71.98%, the “Screening data (Relative infection to DMSO controls) Average 1 μM” value turned out to be 28.02, the “Percentage Inhibition Average 5 μM” value stood at 38.83% and the “Screening data (Relative infection to DMSO controls) Average 5 μM” value is on record as 61.17. Besides, in the series with SARS2, the “Percentage Inhibition Average 10 μM” value is on record as 10.99%, the “Screening data (Relative infection to DMSO controls) Average 10 μM” value was found to be 89.01, the “Percentage Inhibition Average 25 μM” value was −45.91% and the “Screening data (Relative infection to DMSO controls) Average 25 μM” value is 145.91. In the series on SARS2, the “Percentage Inhibition Average 50 μM” value is listed as −47.89%, the “Screening data (Relative infection to DMSO controls) Average 50 μM” value was determined as 147.89 and the “Average (relative infection to DMSO over the 5 tested concentrations)” value is 94.40. Moreover, in the series on cells (nuclei count), the “Relative cell count to DMSO controls, Average 1 μM” value (shortened to “Relative cell count … Average 1 μM”) turned out to be 130.04; the “Relative cell count to DMSO controls, Average 5 μM” value (from here on “Relative cell count … Average 5 μM”) was found to be 111.32; the “Relative cell count to DMSO controls, Average 10 μM” value (“Relative cell count … Average 10 μM” for short) worked out at 104.3; the “Relative cell count to DMSO controls, Average 25 μM” value (from here on “Relative cell count … Average 25 μM”) amounted to 93.9. In addition, in the series on cells (nuclei count), the “Relative cell count to DMSO controls, Average 50 μM” value (from here on “Relative cell count … Average 50 μM”) is listed as 79.59 and the “Relative cell count to DMSO controls, Average (for correlation analysis)” value (from here on “Relative cell count … (for correlation analysis)”) is 103.83.

On to `COCC1=C(C(=O)NCC2CCC2)C(c2cccs2)NC(=O)N1` (stereo not drawn) [SILCS56], for which, in the series with SARS2, the “Percentage Inhibition Average 1 μM” value is recorded as 31.59%, the “Screening data (Relative infection to DMSO controls) Average 1 μM” value came out at 68.41, the “Percentage Inhibition Average 5 μM” value came to 44.15% and the “Screening data (Relative infection to DMSO controls) Average 5 μM” value turned out to be 55.85. Besides, in the series on SARS2, the “Percentage Inhibition Average 10 μM” value is listed as 29.24%, the “Screening data (Relative infection to DMSO controls) Average 10 μM” value was 70.76, the “Percentage Inhibition Average 25 μM” value was 2.27% and the “Screening data (Relative infection to DMSO controls) Average 25 μM” value came to 97.73. Besides, in the series with SARS2, the “Percentage Inhibition Average 50 μM” value is −21.04%, the “Screening data (Relative infection to DMSO controls) Average 50 μM” value was 121.04 and the “Average (relative infection to DMSO over the 5 tested concentrations)” value came out at 82.76. For the same compound, in the series with cells (nuclei count), the “Relative cell count … Average 1 μM” value is 120.34; the “Relative cell count … Average 5 μM” value turned out to be 119.22; the “Relative cell count … Average 10 μM” value amounted to 119.65; the “Relative cell count … Average 25 μM” value was 104.41. For the same compound, in the series with cells (nuclei count), the “Relative cell count … Average 50 μM” value is on record as 89.59 and the “Relative cell count … (for correlation analysis)” value is given as 110.64.

As to `CC1=C(C(=O)NCc2ccccc2)C(c2scc3c2OCCO3)NC(=O)N1` (stereo not drawn) [SILCS66], in the series with SARS2, the “Percentage Inhibition Average 1 μM” value was −3.65%, the “Screening data (Relative infection to DMSO controls) Average 1 μM” value came out at 103.65, the “Percentage Inhibition Average 5 μM” value was determined as 38.92% and the “Screening data (Relative infection to DMSO controls) Average 5 μM” value came to 61.08. In the series on SARS2, the “Percentage Inhibition Average 10 μM” value is given as −7.16%, the “Screening data (Relative infection to DMSO controls) Average 10 μM” value came to 107.16, the “Percentage Inhibition Average 25 μM” value was −12.41% and the “Screening data (Relative infection to DMSO controls) Average 25 μM” value stood at 112.41. Further, in the series with SARS2, the “Percentage Inhibition Average 50 μM” value is listed as −28.18%, the “Screening data (Relative infection to DMSO controls) Average 50 μM” value is 128.18 and the “Average (relative infection to DMSO over the 5 tested concentrations)” value is 102.50. Besides, in the series on cells (nuclei count), the “Relative cell count … Average 1 μM” value is on record as 98.81; the “Relative cell count … Average 5 μM” value is 109.01; the “Relative cell count … Average 10 μM” value came out at 93.98; the “Relative cell count … Average 25 μM” value stood at 90.79. In the series on cells (nuclei count), the “Relative cell count … Average 50 μM” value was determined as 84.65 and the “Relative cell count … (for correlation analysis)” value came to 95.45.

For `CCCCCCCCNC(=O)C1=C(C)NC(=O)NC1c1ccc(OC)c(OC)c1` (stereo not drawn) [SILCS65], in the series on SARS2, the “Percentage Inhibition Average 1 μM” value turned out to be 12.85%, the “Screening data (Relative infection to DMSO controls) Average 1 μM” value is listed as 87.15, the “Percentage Inhibition Average 5 μM” value was found to be 42.13% and the “Screening data (Relative infection to DMSO controls) Average 5 μM” value is 57.87. For the same compound, in the series with SARS2, the “Percentage Inhibition Average 10 μM” value is reported as −8.68%, the “Screening data (Relative infection to DMSO controls) Average 10 μM” value was 108.68, the “Percentage Inhibition Average 25 μM” value is listed as −33.09% and the “Screening data (Relative infection to DMSO controls) Average 25 μM” value was 133.09. In addition, in the series on SARS2, the “Percentage Inhibition Average 50 μM” value is −46.13%, the “Screening data (Relative infection to DMSO controls) Average 50 μM” value was 146.13 and the “Average (relative infection to DMSO over the 5 tested concentrations)” value was found to be 106.58. Further, in the series on cells (nuclei count), the “Relative cell count … Average 1 μM” value came to 104.64; the “Relative cell count … Average 5 μM” value is recorded as 115.73; the “Relative cell count … Average 10 μM” value was found to be 98.27; the “Relative cell count … Average 25 μM” value amounted to 89.35. Further, in the series on cells (nuclei count), the “Relative cell count … Average 50 μM” value is 75.91 and the “Relative cell count … (for correlation analysis)” value is 96.78.

As to `Cc1ccc(CN(CCN(C)C)Cc2ccc(CO)o2)s1` [SILCS13], in the series on SARS2, the “Percentage Infection Relative to DMSO Control, Average, Mean” value is 85.64% and 142.17% and 120.89% and 97.87% and 94.70%; the “Percentage Inhibition Average 1 μM” value is listed as 5.30%; the “Screening data (Relative infection to DMSO controls) Average 1 μM” value worked out at 94.70; the “Percentage Inhibition Average 5 μM” value is 2.13%. Further, in the series with SARS2, the “Screening data (Relative infection to DMSO controls) Average 5 μM” value amounted to 97.87, the “Percentage Inhibition Average 10 μM” value is −20.89%, the “Screening data (Relative infection to DMSO controls) Average 10 μM” value worked out at 120.89 and the “Percentage Inhibition Average 25 μM” value is recorded as −42.17%. In the series with SARS2, the “Screening data (Relative infection to DMSO controls) Average 25 μM” value came to 142.17, the “Percentage Inhibition Average 50 μM” value is recorded as 14.36%, the “Screening data (Relative infection to DMSO controls) Average 50 μM” value is on record as 85.64 and the “Average (relative infection to DMSO over the 5 tested concentrations)” value is listed as 108.25. Also, the “Toxicity Data: Average, Mean” value in the series on cells (nuclei count) (1 uM) was found to be 105.73%. For the same compound, in the series with cells (nuclei count), the “Relative cell count … Average 1 μM” value turned out to be 105.73; the “Relative cell count … Average 5 μM” value worked out at 107.19; the “Relative cell count … Average 10 μM” value worked out at 105.25; the “Relative cell count … Average 25 μM” value is recorded as 104.32. Further, in the series on cells (nuclei count), the “Relative cell count … Average 50 μM” value was determined as 78.61 and the “Relative cell count … (for correlation analysis)” value was found to be 100.22. For the same compound, the “Toxicity Data: Average, Mean” value in the series with cells (nuclei count) (5 uM) is 107.19%. For the same compound, in the series on cells (nuclei count) (10 uM), the “Toxicity Data: Average, Mean” value was determined as 105.25%. Besides, the “Toxicity Data: Average, Mean” value in the series with cells (nuclei count) (25 uM) is 104.32%. The “Toxicity Data: Average, Mean” value in the series with cells (nuclei count) (50 uM) stood at 78.61%.

Regarding `O=C(NC1CCCCCC1)c1cn[nH]c1-c1ccc2c(c1)OCCO2` [UMB22_16], the “SARS2 antiviral activity” value with SARS2 is “improved activity than ring open analogs”.

Consider `CC1=C(C(=O)OC2CCCCCCC2)C(c2ccc3c(c2)OCO3)NC(=O)N1` (stereo not drawn) [UMB22_5], for which, in the series with SARS2, the “SARS2 antiviral activity” value was “improved activity than ring open analogs”.
